Structures are written as SMILES. Like-named read-outs stand apart in the source and are kept apart here.

One series deals with SNB motor neurons. Put plainly: Developmentally regulated motor neuronal death in the neonatal rat (SNB). The class given is in vivo. The procedure: Untimed pregnant Sprague-Dawley rats were obtained from Harlan Laboratories (Indianapolis, IN). Female rat pups were injected daily, subcutaneously (SC), over the target perineal muscles, with Compound III-3 in 5% Solutol ™ HS 15 or vehicle along starting on the day of birth (P1) and continuing for 5 days (P5). On P10 or P60, pups were decapitated, blood was collected in heparinized capillary tubes, and the region of the spinal cord containing the sexually dimorphic spinal nucleus of the bulbocavemosus (SNB) and the perineal area containing the bulbocavernosus (BC) and levator ani (LA) muscles were dissected after perfusion of the animals with saline/formalin. The region of the spinal cord containing the SNB was postfixed, embedded in Paraplast, sectioned at 10µm, and stained with Cresylecht violet (Nordeen, et al., Science, 1985, 229, 671-673, which is incorporated herein by reference in its entirety). Motor neurons were counted at X500 in serial sections from the lumbar 5 to the sacral 1 region of the spinal cord as described previously (Nordeen, et al., supra). The microscopic enumeration was made on coded sections by an observer blinded to the treatment groups. Motor neuron counts were corrected for cell size and section thickness (Konisgsmark, Contemporary Research Methods in Neuroanatomy, Nauta & Ebbesson, Eds., 1970, Springer-Verlag, New York, pp.315-340, which is incorporated herein by reference in its entirety) and statistical analysis was by one-way analysis ofvariance (ANOVA). Perineal musculature was postfixed, decalcified, embedded in Paraplast, sectioned at I 0µm and stained with Milligan's Trichrome. […] The outline of muscle tissue was traced from alternate sections using a projection microscope (62.5), and the cross-sectional area was measured using a digitizing pad and a computer-based morphometry system (Sigmascan, Jandel Scientific). Muscle volume was calculated by talking the total cross-sectional area and multiplying it by the section thickness, and corrected for the percentage of the structure sampled.

The next series relates to TNF-α. The series is described as follows: Induction of TNF-α by LPS in THP-1 cells (ELISA). The class given is cell-based. The following applies: Homo sapiens. As for the experimental part: THP-1 cells were grown in RPMI 1640 medium supplemented with 10% fetal bovine serum. LPS (E.coli serotype 0111.B4, TCA extracted) was purchased from Sigma and dissolved in PBS. ELISA kits for assaying IL-1 and TNF-α were purchased from Boerhinger-Mannheim and assays on THP-1 culture medium were performed as directed by the manufacturer. Standard curves according to directions were obtained with each assay.
Experiments were performed in 12 well culture plates with either 1 or 2 ml of THP-1 cells at 4 X 10^5 cells/ml. IL-1 and TNF-α were induced by the addition of LPS to the culture medium and the medium collected at various times thereafter for cytokine assay. Cells were removed by centrifugation and the supernatants frozen at -70°C until assay. To minimize costs experiments were performed in duplicate cultures and the duplicate supernatants were pooled after centrifugation. Each pooled supernatant was assayed in duplicate. Stock solutions of indolo- and fused pyrrolocarbazoles in 100% DMSO were diluted to the desired concentrations in either medium containing 10% fetal bovine serum or in medium containing 0.5 mg/ml BSA. Unless otherwise stated, compounds were added to the THP-1 cells 1 hr prior to the addition of LPS.

A further series deals with T1, MLK-3 (Homo sapiens, UniProt Q16584).
T1 construct: A full length cDNA of human MLK-3, MLK-2, or mouse DLK; expressed in transfected cells; host or cells: Cos7
T1 sequence (Q16584 whole entry): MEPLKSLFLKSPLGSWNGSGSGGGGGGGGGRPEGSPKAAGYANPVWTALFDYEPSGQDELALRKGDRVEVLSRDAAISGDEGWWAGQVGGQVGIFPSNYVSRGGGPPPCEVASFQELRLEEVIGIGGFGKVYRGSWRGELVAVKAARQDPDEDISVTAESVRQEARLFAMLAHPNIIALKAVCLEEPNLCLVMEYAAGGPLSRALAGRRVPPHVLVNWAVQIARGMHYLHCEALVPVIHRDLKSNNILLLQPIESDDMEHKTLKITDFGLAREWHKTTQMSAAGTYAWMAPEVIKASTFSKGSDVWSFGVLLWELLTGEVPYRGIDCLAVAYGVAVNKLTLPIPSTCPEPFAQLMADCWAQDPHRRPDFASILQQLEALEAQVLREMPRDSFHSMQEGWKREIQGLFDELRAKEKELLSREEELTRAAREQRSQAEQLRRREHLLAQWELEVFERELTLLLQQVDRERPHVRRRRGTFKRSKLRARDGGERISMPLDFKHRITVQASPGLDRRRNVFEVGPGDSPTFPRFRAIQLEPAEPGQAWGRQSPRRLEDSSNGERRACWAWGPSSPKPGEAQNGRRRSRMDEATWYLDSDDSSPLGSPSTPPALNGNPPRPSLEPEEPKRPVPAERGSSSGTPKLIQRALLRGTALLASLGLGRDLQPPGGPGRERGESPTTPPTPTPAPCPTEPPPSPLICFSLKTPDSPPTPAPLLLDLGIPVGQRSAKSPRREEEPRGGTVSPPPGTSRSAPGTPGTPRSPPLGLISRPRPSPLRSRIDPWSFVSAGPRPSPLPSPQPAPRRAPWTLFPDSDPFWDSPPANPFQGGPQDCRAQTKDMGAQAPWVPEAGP
The series is described as follows: JNK activity (immunoprecipitation/kinase assay) in Cos7 cells overexpressing MLK-3 and HA-JNK1. The following applies: COS-7. It counts as cell-based. As for the experimental part: Cos7 cells were plated at 80% confluency and transfected with 2 ug each of cDNA constructs using lipofectamine as recommended by the provider (Gibco BRL, Gaithersburg, MD). A full length cDNA of human MLK-3, MLK-2, or mouse DLK or a partial human MLK-1 as described above, and a full length Hemagluttinin A-tagged human JNK1, kindly provided by J. Silvio Gutkind (NIH, Bethesda, MD), were subcloned into the pcDNA3 vector (Invitrogen, San Diego, CA). […] JNK activity from the lysate was assayed by an immunoprecipitation/kinase assay as described below.
Lysate from Cos 7 cells was measured for protein concentration using the Micro BCA kit from Pierce (Rockford, IL) and equal amounts of protein were immunoprecipitated with the HA antibody for 1 hr at 4°C. Immunoprecipitates were pelleted by centrifugation in a microfuge centrifuge for 20 sec, resuspended in Triton buffer, washed by centrifugation 2 more times, followed by a final wash in Kinase buffer (20 mM Hepes pH 7.4,20 mM MgCl2, 2 mM dithiothreitol, 0.1 mM sodium vanadate). The immunoprecipitate was resuspended in kinase buffer containing 1 µM ATP and 5 µCi [γ-^32P]ATP and substrate (1 µg/sample of AP-1 ) and incubated for 15 min at 30°C. […] Samples were heated to 80°C for 5 min and loaded onto 10% SDS-polyacrylamide gels. Proteins were separated by electrophoresis. The gel was dried and quantitation of radioactivity in the AP-1 substrate was performed on a Molecular Dynamics Phosphorimager (Sunnyvale, Ca.).
To determine whether inhibition of the JNK pathway regulated by these kinases correlated with neurotrophic compounds, we evaluated the effect of compounds on JNK activity in Cos7 cells overexpressing HA-JNK and MLK3. After a 48 hr transfection period, the cells were incubated with compounds at 500 nM for 2hr followed by cellular lysis. Lysate was immunoprecipitated and kinase activity measured as previously described. […]

Usually IC50 stands for the concentration that gives 50% inhibition. `CCSCc1ccc2c(c1)c1c3c(c4c5cc(CSCC)ccc5n5c4c1n2C1CC(O)(C(=O)OC)C5(C)O1)CNC3=O` (stereo not shown) [III-3]: in the series with SNB motor neurons (0.5 and 1 mg/kg per day PN 1-5, sacrifice at PN60), the “rescued motor neurons identifiable morphologically 55 days after the last treatment” value is 100%. Also, the “enhancement in motor-neuronal survival” value with SNB motor neurons (0.5 and 1 mg/kg per day sc, PN 1-5, female rats) was 70%. For the same compound, in the series on SNB motor neurons (SNB model), the “weight loss, mortality, gross tissue damage” value was “no associated weight loss, mortality, or gross tissue damage”. The IC50 is 29 nM with TNF-α (THP-1, LPS 2 µg/ml, serum-free medium, read-out: THP-1 Cells TNF-α IC50) and 139 nM in the series with TNF-α (THP-1 cells, medium containing 10% fetal bovine serum, read-out: IC50 inhibition of the induction of TNF-α). In addition, the inhibition at 0.5 µM stood at 94% on MLK-3 (500 nM for 2hr, control is JNK activity in the presence of DMSO, read-out: % Inhibition of JNK Activity (average) MLK3 in Cos7 cells) and 94% on MLK-3 (read-out: Overexpressed MLK3 in Cos 7 Cells JNK % inh. 500 nM).
